Assay: antimicrobial activity (statement in words)
Type: cell-based
Details: less polar isomer (A) versus more polar isomer (B)

Structure (SMILES): N[C@@H](C(=O)N[C@@H]1C(=O)N2C(C(=O)O)=C(Cl)CC[C@H]12)c1ccccc1 [Example 1, (6R, 7S) 7-(R)-phenylglycinamido-3-chloro-1-azabicyclo[4,2,0]oct-2-en-8-on-2-carboxylic acid]
- antimicrobial activity: greater antimicrobial activity

From patent publication US4335211A, “Process for producing optically active cephalosporin analogs” (Kyowa Hakko Kogyo Co., Ltd., priority 1979, dated 1982)
